The target of one assay is PI3Kα (Homo sapiens, UniProt P42336). In words: PI3K Biochemical Assays (ATP consumption, luciferase-luciferin chemiluminescence). The conditions noted are these: PI3Kα 1.5 nM, ATP 1 μM, PIP2 10 μM; percent of ATP consumed. In outline: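 Enzyme (1.5 nM), PIP2 substrate (10 μM) and ATP (1 μM) react about 2 h at room temperature in Tris buffer pH 7.5 with MgCl2, EGTA, DTT and CHAPS. Remaining ATP detected by Kinase-Glo luminescence; total consumption limited to 40-60%.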

The target in a further assay is mTORC1 (mTOR/GbL/Raptor) (Homo sapiens, UniProt P42345). In words: mTOR/GbL/Raptor (mTORC1) ELISA Assay. It counts as biochemical. The conditions noted are these: 0.2 nM mTORC1, 10 μM ATP, 50 nM NHis-tagged 4E-BP1; phosphorylation of 4E-BP1; read-out: IC50. In outline:
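Detection used Ni-chelate capture of His-tagged 4E-BP1, then anti-phospho-4E-BP1 and HRP anti-IgG with luminescent ELISA substrate. Reactions ran 120 min at ambient temperature with 0.2 nM mTORC1, 10 μM ATP, 50 nM 4E-BP1, 10 mM MnCl2, pH 7.2 Hepes.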
A general note: ELISA stands for enzyme-linked immunosorbent assay.

Where only a bound is given, the exact number is not on record here.

This is an account of results in patent US8637499B2, “Benzoxazepines as inhibitors of PI3K/mTOR and methods of their use and manufacture” (Exelixis, Inc., priority 2009, dated 2014).

Chain of PI3Kα (P42336 whole entry): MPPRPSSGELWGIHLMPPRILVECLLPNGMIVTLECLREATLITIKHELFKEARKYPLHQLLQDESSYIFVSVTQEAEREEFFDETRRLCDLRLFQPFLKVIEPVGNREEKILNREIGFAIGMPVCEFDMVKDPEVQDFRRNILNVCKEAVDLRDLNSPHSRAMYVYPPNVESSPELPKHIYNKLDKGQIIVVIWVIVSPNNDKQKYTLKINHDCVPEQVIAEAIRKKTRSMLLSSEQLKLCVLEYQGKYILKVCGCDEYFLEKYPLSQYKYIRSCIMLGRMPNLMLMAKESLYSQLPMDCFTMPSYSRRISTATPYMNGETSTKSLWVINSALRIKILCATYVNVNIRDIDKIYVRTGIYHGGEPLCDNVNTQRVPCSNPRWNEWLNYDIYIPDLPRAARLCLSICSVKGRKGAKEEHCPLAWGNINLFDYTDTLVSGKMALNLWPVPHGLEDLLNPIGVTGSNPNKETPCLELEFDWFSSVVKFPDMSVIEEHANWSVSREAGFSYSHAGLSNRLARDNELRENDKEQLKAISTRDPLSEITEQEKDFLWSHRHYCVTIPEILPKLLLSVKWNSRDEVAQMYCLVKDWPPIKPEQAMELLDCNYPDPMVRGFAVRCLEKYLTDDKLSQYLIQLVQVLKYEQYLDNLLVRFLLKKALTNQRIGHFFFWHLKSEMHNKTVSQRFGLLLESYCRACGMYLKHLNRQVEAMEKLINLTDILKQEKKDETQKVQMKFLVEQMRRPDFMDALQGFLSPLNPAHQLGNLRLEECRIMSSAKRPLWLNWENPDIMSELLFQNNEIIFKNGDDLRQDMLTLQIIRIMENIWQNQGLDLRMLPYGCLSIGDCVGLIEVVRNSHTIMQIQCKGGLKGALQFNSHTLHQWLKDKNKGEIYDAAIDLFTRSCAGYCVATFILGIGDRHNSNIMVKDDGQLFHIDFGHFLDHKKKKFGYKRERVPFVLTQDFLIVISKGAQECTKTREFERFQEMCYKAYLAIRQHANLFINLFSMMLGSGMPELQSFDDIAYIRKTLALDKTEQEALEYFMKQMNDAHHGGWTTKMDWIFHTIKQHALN
Chain of PI3Kα (P27986 whole entry partner): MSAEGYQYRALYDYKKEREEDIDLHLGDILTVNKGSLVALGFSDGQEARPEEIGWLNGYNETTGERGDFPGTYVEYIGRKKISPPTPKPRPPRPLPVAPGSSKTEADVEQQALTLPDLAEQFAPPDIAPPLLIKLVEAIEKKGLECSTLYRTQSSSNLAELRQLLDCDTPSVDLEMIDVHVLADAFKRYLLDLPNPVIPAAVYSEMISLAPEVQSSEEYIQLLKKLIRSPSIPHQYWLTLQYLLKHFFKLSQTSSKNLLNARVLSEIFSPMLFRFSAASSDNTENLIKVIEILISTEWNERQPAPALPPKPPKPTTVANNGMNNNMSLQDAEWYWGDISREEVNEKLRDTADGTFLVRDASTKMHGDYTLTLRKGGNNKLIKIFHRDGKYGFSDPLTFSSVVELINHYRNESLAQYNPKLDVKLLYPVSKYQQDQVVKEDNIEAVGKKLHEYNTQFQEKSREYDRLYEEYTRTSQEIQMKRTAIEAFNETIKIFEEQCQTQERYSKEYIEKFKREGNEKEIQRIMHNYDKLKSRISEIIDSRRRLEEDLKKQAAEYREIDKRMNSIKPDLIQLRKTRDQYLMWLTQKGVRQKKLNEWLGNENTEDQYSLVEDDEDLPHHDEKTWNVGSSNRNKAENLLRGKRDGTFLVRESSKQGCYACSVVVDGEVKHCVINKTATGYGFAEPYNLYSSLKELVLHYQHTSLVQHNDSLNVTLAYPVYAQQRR

Regarding `Cc1nc2ccc(-c3ccc4c(c3)CN(C(=O)N3CCCC(C)C3)CCO4)cc2[nH]1` (stereo not drawn) [Compound 88, 7-(2-methyl-1H-benzimidazol-6-yl)-4-[(3-methylpiperidin-1-yl)carbonyl]-2,3,4,5-tetrahydro-1,4-benzoxazepine], the IC50 at PI3Kα was in the range of 0.2 to 0.5 µM; on mTORC1 (mTOR/GbL/Raptor) it was 0.25 to 0.7 µM.
In the same order, the values of `Cc1nc2ccc(-c3ccc4c(c3)CN(C(=O)N3CCC(=C(F)F)CC3)CCO4)cc2[nH]1` [Compound 137, 4-{[4-(difluoromethylidene)piperidin-1-yl]carbonyl}-7-(2-methyl-1H-benzimidazol-6-yl)-2,3,4,5-tetrahydro-1,4-benzoxazepine] are 0.2 to 0.5 µM and 0.25 to 0.7 µM.
In the same order, the values of `COC(=O)Nc1nc2ncc(-c3ccc4c(c3)CN(C(=O)N3CCC(CF)CC3)CCO4)cc2[nH]1` [Compound 36, methyl [6-(4-{[4-(fluoromethyl)piperidin-1-yl]carbonyl}-2,3,4,5-tetrahydro-1,4-benzoxazepin-7-yl)-1H-imidazo[4,5-b]pyridin-2-yl]carbamate] are not above 0.075 µM and not above 0.05 µM.
In the same order, the values of `Cc1nc2ccc(-c3ccc4c(c3)CN(C(=O)N3C5CCC3c3ccccc35)CCO4)cc2[nH]1` [Compound 143, 9-{[7-(2-methyl-1H-benzimidazol-6-yl)-2,3-dihydro-1,4-benzoxazepin-4(5H)-yl]carbonyl}-1,2,3,4-tetrahydro-1,4-epiminonaphthalene] are 0.2 to 0.5 µM and 0.05 to 0.25 µM.
For the compound `Nc1nc2ncc(-c3ccc4c(c3)CN(C(=O)N3CCC(CCF)CC3)CCO4)cc2[nH]1` [Compound 44, 6-(4-{[4-(2-fluoroethyl)piperidin-1-yl]carbonyl}-2,3,4,5-tetrahydro-1,4-benzoxazepin-7-yl)-1H-imidazo[4,5-b]pyridin-2-amine], the IC50 at PI3Kα is not above 0.075 µM; at mTORC1 (mTOR/GbL/Raptor), not above 0.05 µM.
On the same counts, the results for `COC(=O)Nc1nc2ccc(-c3ccc4c(c3)CN(C(=O)N3CCC(C#N)CC3)CCO4)cc2[nH]1` [Compound 21, methyl (6-{4-[(4-cyanopiperidin-1-yl)carbonyl]-2,3,4,5-tetrahydro-1,4-benzoxazepin-7-yl}-1H-benzimidazol-2-yl)carbamate] are 0.075 to 0.2 µM and 0.05 to 0.25 µM.
For `Cc1nc2ccc(-c3ccc4c(c3)CN(C(=O)N3CCC(Oc5ccc(Cl)cc5)CC3)CCO4)cc2[nH]1` [Compound 70, 4-({4-[(4-chlorophenyl)oxy]piperidin-1-yl}carbonyl)-7-(2-methyl-1H-benzimidazol-6-yl)-2,3,4,5-tetrahydro-1,4-benzoxazepine], the IC50 was in the range of 1 to 3 µM against PI3Kα and 0.05 to 0.25 µM on mTORC1 (mTOR/GbL/Raptor).
In the same order, the values of `Cc1nc2ccc(-c3ccc4c(c3)CN(C(=O)N3CCN(c5ccccc5)CC3c3ccccc3)CCO4)cc2[nH]1` (stereo not drawn) [Compound 145, 4-[(2,4-diphenylpiperazin-1-yl)carbonyl]-7-(2-methyl-1H-benzimidazol-6-yl)-2,3,4,5-tetrahydro-1,4-benzoxazepine] are 1 to 3 µM and 0.25 to 0.7 µM.
In the same order, the values of `Cc1nc2ccc(-c3ccc4c(c3)CN(C(=O)N3CCC(Cc5ccc(Cl)cc5)CC3)CCO4)cc2[nH]1` [Compound 69, 4-({4-[(4-chlorophenyl)methyl]piperidin-1-yl}carbonyl)-7-(2-methyl-1H-benzimidazol-6-yl)-2,3,4,5-tetrahydro-1,4-benzoxazepine] are 1 to 3 µM and 0.05 to 0.25 µM.
With `COC(=O)Nc1nc2ccc(-c3ccc4c(c3)CN(C(=O)N3CCC(=O)CC3c3ccc(F)c(F)c3)CCO4)cc2[nH]1` (stereo not drawn) [Compound 16, methyl [6-(4-{[2-(3,4-difluorophenyl)-4-oxopiperidin-1-yl]carbonyl}-2,3,4,5-tetrahydro-1,4-benzoxazepin-7-yl)-1H-benzimidazol-2-yl]carbamate], the IC50 on PI3Kα is not above 0.075 µM; on mTORC1 (mTOR/GbL/Raptor), 0.05 to 0.25 µM.
On the same counts, the results for `O=C(N1CCC(C(F)F)CC1)N1CCOc2ccc(-c3ccc(-c4ncc[nH]4)cc3)cc2C1` [Compound 62, 4-{[4-(difluoromethyl)piperidin-1-yl]carbonyl}-7-[4-(1H-imidazol-2-yl)phenyl]-2,3,4,5-tetrahydro-1,4-benzoxazepine] are 0.075 to 0.2 µM and not above 0.05 µM.
Consider `Cc1nc2ccc(-c3ccc4c(c3)CN(C(=O)N3CCCC(O)C3)CCO4)cc2[nH]1` (stereo not drawn) [Compound 108, 1-{[7-(2-methyl-1H-benzimidazol-6-yl)-2,3-dihydro-1,4-benzoxazepin-4(5H)-yl]carbonyl}piperidin-3-ol], for which the IC50 against PI3Kα lay in the range of 0.5 to 1 µM; on mTORC1 (mTOR/GbL/Raptor), 0.25 to 0.7 µM.
In the same order, the values of `Cc1nc2ccc(-c3ccc4c(c3)CN(C(=O)N3CCCC[C@@H]3c3ccccc3)CCO4)cc2[nH]1` [Compound 66, 7-(2-methyl-1H-benzimidazol-6-yl)-4-{[(2R)-2-phenylpiperidin-l-yl]carbonyl}-2,3,4,5-tetrahydro-1,4-benzoxazepine] are not above 0.075 µM and not above 0.05 µM.
In the same order, the values of `CCNc1nc2ccc(-c3ccc4c(c3)CN(C(=O)N3CCC(CF)CC3)CCO4)cc2[nH]1` [Compound 29, N-ethyl-6-(4-{[4-(fluoromethyl)piperidin-1-yl]carbonyl}-2,3,4,5-tetrahydro-1,4-benzoxazepin-7-yl)-1H-benzimidazol-2-amine] are 0.075 to 0.2 µM and not above 0.05 µM.
On the same counts, the results for `O=C1CCN(C(=O)N2CCOc3ccc(-c4ccc5[nH]c(NCC(F)(F)F)nc5c4)cc3C2)C(c2cccc(F)c2)C1` (stereo not drawn) [Compound 31, 2-(3-fluorophenyl)-1-{[7-{2-[(2,2,2-trifluoroethyl)amino]-1H-benzimidazol-5-yl}-2,3-dihydro-1,4-benzoxazepin-4(5H)-yl]carbonyl}piperidin-4-one] are 0.2 to 0.5 µM and not above 0.05 µM.
On to `Cc1nc2ccc(-c3ccc4c(c3)CN(C(=O)N3CCCCC3c3cccc(C(F)(F)F)c3)CCO4)cc2[nH]1` (stereo not drawn) [Compound 127, 7-(2-methyl-1H-benzimidazol-6-yl)-4-({2-[3-(trifluoromethyl)phenyl]piperidin-1-yl}carbonyl)-2,3,4,5-tetrahydro-1,4-benzoxazepine], for which the concentration for half-maximal inhibition (IC50) against PI3Kα was in the range of 0.2 to 0.5 µM; on mTORC1 (mTOR/GbL/Raptor), 0.25 to 0.7 µM.
In the same order, the values of `CC(=O)Nc1ncc(-c2ccc3c(c2)CN(C(=O)N2CCC(C)CC2)CCO3)s1` [Compound 5, N-(5-{4-[(4-methylpiperidin-1-yl)carbonyl]-2,3,4,5-tetrahydro-1,4-benzoxazepin-7-yl}-1,3-thiazol-2-yl)acetamide] are 1 to 3 µM and 0.25 to 0.7 µM.
With `COC(=O)Nc1nc2ncc(-c3ccc4c(c3)CN(C(=O)N3CCC(=O)CC3c3ccc(F)c(F)c3)CCO4)cc2[nH]1` (stereo not drawn) [Compound 39, methyl [6-(4-{[2-(3,4-difluorophenyl)-4-oxopiperidin-1-yl]carbonyl}-2,3,4,5-tetrahydro-1,4-benzoxazepin-7-yl)-1H-imidazo[4,5-b]pyridin-2-yl]carbamate], the results for the IC50 against PI3Kα and on mTORC1 (mTOR/GbL/Raptor) were not above 0.075 µM and 0.05 to 0.25 µM, respectively.
In the same order, the values of `O=C(N1CCC(C(F)(F)F)CC1)N1CCOc2ccc(-c3ccc(-c4ncc[nH]4)cc3)cc2C1` [Compound 7, 7-[4-(1H-imidazol-2-yl)phenyl]-4-{[4-(trifluoromethyl)piperidin-1-yl]carbonyl}-2,3,4,5-tetrahydro-1,4-benzoxazepine] are not above 0.075 µM and not above 0.05 µM.
Take `Cc1nc2ccc(-c3ccc4c(c3)CN(C(=O)N3CCCCC3c3ccc(F)c(C)c3)CCO4)cc2[nH]1` (stereo not drawn) [Compound 118, 4-{[2-(4-fluoro-3-methylphenyl)piperidin-1-yl]carbonyl}-7-(2-methyl-1H-benzimidazol-6-yl)-2,3,4,5-tetrahydro-1,4-benzoxazepine]: the IC50 is 0.075 to 0.2 µM at PI3Kα and not above 0.05 µM at mTORC1 (mTOR/GbL/Raptor).
In the same order, the values of `Cc1nc2ccc(-c3ccc4c(c3)CN(C(=O)N3CCN(c5ccccn5)CC3)CCO4)cc2[nH]1` [Compound 172, 7-(2-methyl-1H-benzimidazol-6-yl)-4-[(4-pyridin-2-ylpiperazin-1-yl)carbonyl]-2,3,4,5-tetrahydro-1,4-benzoxazepine] are 0.2 to 0.5 µM and 0.7 to 2.6 µM.
In the same order, the values of `O=C1CCN(C(=O)N2CCOc3ccc(-c4ccc(-c5ncc[nH]5)cc4)cc3C2)C(c2cccc(F)c2)C1` (stereo not drawn) [Compound 55, 2-(3-fluorophenyl)-1-({7-[4-(1H-imidazol-2-yl)phenyl]-2,3-dihydro-1,4-benzoxazepin-4(5H)-yl}carbonyl)piperidin-4-one] are not above 0.075 µM and not above 0.05 µM.
On the same counts, the results for `Cc1nc2ccc(-c3ccc4c(c3)CN(C(=O)N3CCC(C(C)(C)O)CC3)CCO4)cc2[nH]1` [Compound 139, 2-(1-{[7-(2-methyl-1H-benzimidazol-6-yl)-2,3-dihydro-1,4-benzoxazepin-4(5H)-yl]carbonyl}piperidin-4-yl)propan-2-ol] are 1 to 3 µM and 0.05 to 0.25 µM.
`COC(=O)Nc1nc2ccc(-c3ccc4c(c3)CN(C(=O)N3CCC(O)(c5cccc(C(F)(F)F)c5)CC3)CCO4)cc2[nH]1` [Compound 18, methyl {6-[4-({4-hydroxy-4-[3-(trifluoromethyl)phenyl]piperidin-1-yl}carbonyl)-2,3,4,5-tetrahydro-1,4-benzoxazepin-7-yl]-1H-benzimidazol-2-yl}carbamate]: the IC50 against PI3Kα is not above 0.075 µM; on mTORC1 (mTOR/GbL/Raptor), 0.05 to 0.25 µM.

Usually IC50 stands for the midpoint of a concentration-inhibition curve.
